Laboratory results as given in patent publication US20240174622A1, “COMPOUND AND RADIOACTIVE LABELING COMPOUND” (NIHON MEDI-PHYSICS CO., LTD., priority 2021, published 2024).

Columns and labels:
[1] = test system: LNCaP tumor-transplanted mouse; experiment: Internal radioactivity distribution using LNCaP tumor-transplanted mouse; assay type: in vivo
Method: (§1) The animal test was performed in compliance with the guidelines of Kyoto University Animal Experiment Committee. Male CB17/IcrJcl-Prkdc^scid mice were purchased from CLEA Japan, Inc. The animals were kept under 12 h/12 h, day/night cycle conditions and fed ad libitum with food and water. LNCaP cells (1.0×10^7 cells/mouse) or PC-3 cells (1.0×10^7 cells/mouse) were suspended in a mixture of PBS and Matrigel manufactured by Corning Life Sciences (1:1, 150 μL) and the suspension was subcutaneously transplanted to the right shoulder of mice under isoflurane anesthesia. Thereafter, the mice were kept for 40 to 60 days.
LNCaP or PC-3 tumor-implanted mice were administered saline solutions (185 kBq, 100 μL) of [^111In]In-PSMA-DA1 or [^111In]In-PSMA-DB from the tail vein (n=3 each). Mice were euthanized 1, 4, 24, 48, 96, and 192 hours after administration. Thereafter, blood and each organ were recovered, and the mass and radioactivity of the organs were measured.
The percentage (% ID) of the radioactivity amount to the administered radioactivity amount (injected dose) is shown as the value (% ID/g) divided by the blood mass or the organ mass (g).
LNCaP tumor-implanted mice prepared by the same method as in Example 1-1 were administered a saline solution (241 kBq/100 μL) of [^111In]In-PtDA from the tail vein (n=3). Mice were euthanized 1, 24, and 48 hours after administration. Thereafter, blood and each organ were recovered, and the mass and radioactivity of the organs were measured.
LNCaP tumor-implanted mice prepared by the same method as in Example 1-1 were administered a saline solution (259 kBq/100 μL each) of each of the radiolabeled compounds in Examples 3-1 to 3-3 or Comparative Examples 2-1 to 2-2 from the tail vein (n=2 to 3). Mice were euthanized 1, 4, 24, 48, 96, and 192 hours after administration. Thereafter, blood and each organ were recovered, and the mass and radioactivity of the organs were measured.
as §1, with “LNCaP cells (4.3×10^6 cells/mouse) or” for “LNCaP cells (1.0×10^7 cells/mouse) or”, “PC-3 cells (3.3×10^6 cells/mouse) were” for “PC-3 cells (1.0×10^7 cells/mouse) were”, “shoulder of CB17/IcrJcl-Prkdc^scid mice under” for “shoulder of mice under”
Mice were euthanized 1, 4, 24, 48, 96, and 192 hours after administration. Thereafter, blood and each organ were recovered, and the mass and radioactivity of the organs were measured.
The results are shown in Table 12 (Mean value±standard deviation, n=3).

[2] = target: human serum albumin (HSA) (Homo sapiens, UniProt P02768); experiment: Evaluation of binding to albumin (HSA solution, PBS control); details: left to stand in HSA solution (45 mg/mL)
Chain of human serum albumin (HSA) (P02768 25-609): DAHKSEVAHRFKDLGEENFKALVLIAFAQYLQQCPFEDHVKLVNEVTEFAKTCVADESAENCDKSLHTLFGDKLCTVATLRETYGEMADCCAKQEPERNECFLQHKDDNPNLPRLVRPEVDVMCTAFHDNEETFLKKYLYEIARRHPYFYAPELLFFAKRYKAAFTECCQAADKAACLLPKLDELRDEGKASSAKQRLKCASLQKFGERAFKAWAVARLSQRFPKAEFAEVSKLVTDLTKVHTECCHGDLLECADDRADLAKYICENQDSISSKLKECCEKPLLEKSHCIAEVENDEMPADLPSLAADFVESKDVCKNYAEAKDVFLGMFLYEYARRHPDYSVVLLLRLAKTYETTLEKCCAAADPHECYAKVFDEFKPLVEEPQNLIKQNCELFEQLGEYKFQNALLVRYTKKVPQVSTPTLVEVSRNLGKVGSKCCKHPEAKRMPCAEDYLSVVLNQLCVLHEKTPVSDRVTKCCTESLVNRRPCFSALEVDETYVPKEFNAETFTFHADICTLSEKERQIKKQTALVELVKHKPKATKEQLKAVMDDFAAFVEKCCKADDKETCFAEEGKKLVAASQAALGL
Method: Thereafter, the reaction liquids were added to a spin column (Sephadex G-100; manufactured by Cytiva), and centrifuged at 1500×g at 4° C. for 2 minutes. After separation, the radioactivity for each of the column and the eluate was measured with a gamma counter.
When a compound to be evaluated binds to albumin to form a composite, the compound passes through the column because of the increased molecular size.
As in Examples described above, PBS and human albumin were used to evaluate binding to albumin.
Thereafter, the reaction liquid was added to a spin column (Sephadex G-50; manufactured by Cytiva), and centrifuged at 1500×g at 4° C. for 2 minutes. After separation, the radioactivity of the column and the eluate was measured with a gamma counter.

## O=C([O-])CN(CCN(CCc1ccc(NC(=O)CCCCCNC(=O)CCC(=O)NCCCC[C@H](NC(=O)N[C@@H](CCC(=O)O)C(=O)O)C(=O)O)cc1)CCN(CC(=O)[O-])Cc1cccc(C(=O)[O-])n1)Cc1cccc(C(=O)[O-])n1.[111In+3] [[^111In]In-Neunpa-1, reference compound]
[1]; 1 h after administration
  Blood: 2.30 ± 0.28 % ID/g
  Brain: 0.05 ± 0.00 % ID/g
  Heart: 0.70 ± 0.03 % ID/g
  Intestine: 0.47 ± 0.03 % ID/g
  Kidney: 214 ± 53.0 % ID/g
  LNCaP Tumor: 1.06 ± 0.21 % ID/g
  Liver: 0.60 ± 0.07 % ID/g
  Lung: 1.75 ± 0.18 % ID/g
  Muscle: 0.28 ± 0.06 % ID/g
  Pancreas: 0.57 ± 0.14 % ID/g
  Spleen: 6.83 ± 1.70 % ID/g
  Stomach (% ID): 0.17 ± 0.02 % ID
[1]; 4 h after administration
  Blood: 1.24 ± 0.15 % ID/g
  Brain: 0.04 ± 0.00 % ID/g
  Heart: 0.47 ± 0.08 % ID/g
  Intestine: 0.66 ± 0.08 % ID/g
  Kidney: 125 ± 89.2 % ID/g
  LNCaP Tumor: 0.69 ± 0.30 % ID/g
  Liver: 0.69 ± 0.05 % ID/g
  Lung: 1.03 ± 0.13 % ID/g
  Muscle: 0.11 ± 0.04 % ID/g
  Pancreas: 0.50 ± 0.13 % ID/g
  Spleen: 4.76 ± 1.17 % ID/g
  Stomach (% ID): 0.11 ± 0.03 % ID
[1]; 24 h after administration
  Blood: 0.20 ± 0.02 % ID/g
  Brain: 0.02 ± 0.01 % ID/g
  Heart: 0.21 ± 0.01 % ID/g
  Intestine: 0.32 ± 0.02 % ID/g
  Kidney: 13.5 ± 0.43 % ID/g
  LNCaP Tumor: 0.28 ± 0.02 % ID/g
  Liver: 0.69 ± 0.05 % ID/g
  Lung: 0.34 ± 0.05 % ID/g
  Muscle: 0.10 0.00 % ID/g
  Pancreas: 0.28 ± 0.03 % ID/g
  Spleen: 2.74 ± 0.07 % ID/g
  Stomach (% ID): 0.05 ± 0.00 % ID
[1]; 48 h after administration
  Blood: 0.09 ± 0.03 % ID/g
  Brain: 0.03 ± 0.01 % ID/g
  Heart: 0.18 ± 0.05 % ID/g
  Intestine: 0.32 ± 0.06 % ID/g
  Kidney: 25.2 ± 17.1 % ID/g
  LNCaP Tumor: 0.30 ± 0.11 % ID/g
  Liver: 0.80 ± 0.13 % ID/g
  Lung: 0.32 ± 0.04 % ID/g
  Muscle: 0.10 ± 0.03 % ID/g
  Pancreas: 0.38 ± 0.06 % ID/g
  Spleen: 2.62 ± 0.79 % ID/g
  Stomach (% ID): 0.09 ± 0.06 % ID
[1]; 96 h after administration
  Blood: 0.06 ± 0.02 % ID/g
  Brain: 0.03 ± 0.00 % ID/g
  Heart: 0.28 ± 0.06 % ID/g
  Intestine: 0.16 ± 0.07 % ID/g
  Kidney: 15.1 ± 4.76 % ID/g
  LNCaP Tumor: 0.32 ± 0.09 % ID/g
  Liver: 0.77 ± 0.07 % ID/g
  Lung: 0.39 ± 0.06 % ID/g
  Muscle: 0.09 ± 0.03 % ID/g
  Pancreas: 0.32 ± 0.02 % ID/g
  Spleen: 2.47 ± 0.60 % ID/g
  Stomach (% ID): 0.07 ± 0.03 % ID
[1]; 192 h after administration
  Blood: 0.01 % ID/g
  Brain: 0.03 % ID/g
  Heart: 0.22 % ID/g
  Intestine: 0.06 % ID/g
  Kidney: 2.79 % ID/g
  LNCaP Tumor: 0.15 % ID/g
  Liver: 0.63 % ID/g
  Lung: 0.20 % ID/g
  Muscle: 0.07 % ID/g
  Pancreas: 0.37 % ID/g
  Spleen: 1.05 % ID/g
  Stomach (% ID): 0.02 % ID
[2]
  radioactivity in the eluate (in words): low
